Data reported in patent publication US20090247647A1, “Method of Stimulating Proteoglycan Synthesis in Cells” (priority 2006, published 2009).

Tested on: avian growth plate (GP) chondrocytes
Test: Proteoglycan levels (dimethylmethylene blue assay) in primary growth plate chondrocyte cultures treated with vitamin D3 metabolites
Assay type: cell-based, hybrid broiler-strain chickens
Method: Time and dosage-dependent effects of 1,25(OH)2 Vitamin D3 and 24,25(OH)2 Vitamin D3 on primary cultures of pre- and post-confluent avian growth plate (GP) chondrocytes were examined. Cultures were grown either in a serum-containing culture medium designed to closely mimic normal GP extracellular fluid (DATP5) or a serum-free culture medium. A variety of cellular parameters were measured including proteoglycan (PG), lactate dehydrogenase (LDH) and alkaline phosphatase (ALP) activity and calcium and phosphate mineral deposition in the extracellular matrix were also measured.
To develop the cell cultures, epiphyseal growth plates were dissected from the tibiae of a large number of 6-8-week-old hybrid broiler-strain chickens. The plates were pooled and the chondrocytes isolated. For these studies, the isolated cells were distributed into 320 identical primary cultures grown in 35 mm dishes in DMEM (2 ml per dish) with 10% fetal bovine serum for the first 3-4 days. Culture media were changed and a supplement of fresh ascorbic acid (25-50 μg/ml) added every 3-4 days for the duration of the experiments. From day 7 onward for 160 of the cultures, the medium was changed to DATP5 mineralization medium. To the other 160 dishes on day 7 the medium was changed to DMEM:HL-1 (1:1) and from day 10 onward to HL-1 serum-free medium (Biowhittaker, Walkersville, Md.). HL-1 chemically defined proprietary media contains transferrin, testosterone, sodium selenite, ethanolamine, saturated and unsaturated fatty acids, and stabilizing proteins (less than 30 μg/ml) and is supplemented with 10 mM β-glycerophosphate. […] All culture media contained 100 IU/ml of penicillin, 100 μg/ml streptomycin, and 0.25 μg/ml amphotericin B.
Administration of the vitamin D3 metabolites was initiated either before the cells attained confluence (Day 7, pre-confluent tests), or after they had become confluent (Day 14, post-confluent tests), and continued as indicated. Stock solutions (2 mM) of the vitamin D3 metabolites were prepared and further diluted in ethanol so that 2 μl of the test solution was added to 2 ml of culture medium.
To analyze biochemical activities, cells were harvested from the mm dishes in 1 ml TMT buffer (50 mM Tris, pH 7.5, 0.5 mM MgCl2, 0.05% Triton X-100), the samples being sonicated in a water-bath. Aliquots were taken from each sample for analysis of the following seven parameters: alkaline phosphatase (ALP) and lactate dehydrogenase (LDH) activities, Hoechst DNA, Lowry protein, proteoglycan (PG) and Ca^2+ and Pi mineral content. […] Bovine serum albumin was used as a standard. Proteoglycan content of the cell matrix was analyzed using the dimethylmethylene blue reagent 11 measuring the absorbency difference at 520 and 589 nm. The assay is based on the ability of the sulfated glycosaminoglycans to bind to the cationic dye, dimethylmethylene blue, in solution.
Thus within each sample, the seven parameters were analyzed and subsequently compared. Overall statistical analysis of differences between the various treatment parameters was performed using ANOVA with post hoc Tukey HSD multiple comparisons.

[1] = pre-confluent cultures, serum-containing DATP5 medium, early exposure (Day 7-17)

Structure (SMILES) | effect of high levels on proteoglycan levels (post-confluent treatment (from Day 14), both serum-containing and serum-free cultures) | effect on proteoglycan levels [1] | increase in proteoglycan levels over the control (pre-confluent cultures, serum-containing DATP5 medium, early exposure (Day 7-17), 10 nM) | effect of supra-physiological levels on proteoglycan levels (pre-confluent cultures, serum-free HL-1 medium, 10 nM) | maximal stimulation of proteoglycan levels (pre-confluent cultures, serum-free HL-1 medium, Day 24) | effect on proteoglycan (post-confluent exposure (from Day 14)) | effect on proteoglycan levels (pre-confluent cultures, serum-containing DATP5 medium, longer exposure) | concentration of maximal stimulation of proteoglycan levels (pre-confluent cultures, serum-free HL-1 medium) | effect on proteoglycan formation (pre-confluent cultures, serum-free media) | effect of supra-physiological levels on proteoglycan formation (pre-confluent cultures, serum-free media, 100 nM) | maximal effects on proteoglycan formation relative to those with 1,25(OH)2D3 (pre-confluent cultures, serum-free media, at 10 nM)
C=C1/C(=C\C=C2/CCC[C@]3(C)[C@@H]([C@H](C)CCCC(C)(C)O)CC[C@@H]23)C[C@@H](O)C[C@@H]1O [1,25(OH)2D3, 1,25 Hydroxyvitamin D3] | no longer inhibitory, but actually increased proteoglycan levels | marked dosage-dependent increase | more than four-fold | marked reduction in proteoglycan levels | ~7 fold | – | – | – | – | – | –
C=C1CC[C@H](O)C/C1=C/C=C1\CCC[C@]2(C)[C@@H]([C@H](C)CC[C@@H](O)C(C)(C)O)CC[C@@H]12 [24,25(OH)2D3, 24,25 Hydroxyvitamin D3] | – | minimal stimulation | – | – | – | only small effects | significant increases in proteoglycan levels, equal to or greater than those caused by 1,25(OH)2D3 | 10 nM | stimulated proteoglycan formation | inhibitory to proteoglycan formation | only about half
